Experimental findings from PMC8037503, “Methiothepin Increases Chemotherapy Efficacy against Resistant Melanoma Cells” (Molecules, 2021) are described below.

The target in the test is T1, Ptch1 (Homo sapiens, UniProt Q13635).
T1 construct: human Ptch1 with C-terminal His-tag, DDM-solubilized from yeast membranes
T1 sequence (Q13635 1-1447): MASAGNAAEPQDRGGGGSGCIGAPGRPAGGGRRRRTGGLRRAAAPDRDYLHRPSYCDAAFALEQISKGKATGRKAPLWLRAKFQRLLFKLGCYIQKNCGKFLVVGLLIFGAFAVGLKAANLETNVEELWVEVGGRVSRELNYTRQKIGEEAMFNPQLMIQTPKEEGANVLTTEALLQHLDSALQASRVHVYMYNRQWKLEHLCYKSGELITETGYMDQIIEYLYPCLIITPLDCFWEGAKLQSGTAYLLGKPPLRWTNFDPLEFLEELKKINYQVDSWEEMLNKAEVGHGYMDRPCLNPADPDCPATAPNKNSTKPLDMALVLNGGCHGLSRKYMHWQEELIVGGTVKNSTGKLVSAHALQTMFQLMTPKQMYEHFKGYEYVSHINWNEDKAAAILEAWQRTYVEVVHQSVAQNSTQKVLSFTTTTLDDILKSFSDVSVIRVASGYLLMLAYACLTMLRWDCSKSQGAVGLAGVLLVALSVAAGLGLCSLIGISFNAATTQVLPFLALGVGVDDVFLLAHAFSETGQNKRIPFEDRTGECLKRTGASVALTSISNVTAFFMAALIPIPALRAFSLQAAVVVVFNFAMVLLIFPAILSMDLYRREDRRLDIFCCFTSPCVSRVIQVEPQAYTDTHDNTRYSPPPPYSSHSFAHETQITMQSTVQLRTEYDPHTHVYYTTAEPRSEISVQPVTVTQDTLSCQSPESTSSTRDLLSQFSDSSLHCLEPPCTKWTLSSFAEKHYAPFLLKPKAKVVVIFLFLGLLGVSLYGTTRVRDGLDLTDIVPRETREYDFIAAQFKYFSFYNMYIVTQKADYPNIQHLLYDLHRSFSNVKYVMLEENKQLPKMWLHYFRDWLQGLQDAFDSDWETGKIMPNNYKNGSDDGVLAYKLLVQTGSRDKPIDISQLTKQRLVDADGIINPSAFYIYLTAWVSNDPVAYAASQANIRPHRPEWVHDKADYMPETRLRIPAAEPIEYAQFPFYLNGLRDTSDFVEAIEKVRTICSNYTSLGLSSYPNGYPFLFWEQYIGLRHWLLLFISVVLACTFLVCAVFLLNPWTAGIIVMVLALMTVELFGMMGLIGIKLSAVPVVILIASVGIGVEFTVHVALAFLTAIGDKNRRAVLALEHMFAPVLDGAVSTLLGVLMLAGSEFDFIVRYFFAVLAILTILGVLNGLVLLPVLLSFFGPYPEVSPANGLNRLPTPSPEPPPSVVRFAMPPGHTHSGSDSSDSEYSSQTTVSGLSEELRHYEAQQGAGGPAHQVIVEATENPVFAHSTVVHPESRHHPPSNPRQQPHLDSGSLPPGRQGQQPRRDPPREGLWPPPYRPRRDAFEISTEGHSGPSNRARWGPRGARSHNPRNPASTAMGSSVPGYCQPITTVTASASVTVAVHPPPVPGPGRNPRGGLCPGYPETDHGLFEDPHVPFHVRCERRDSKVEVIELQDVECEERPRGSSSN
Description: microscale thermophoresis on DDM-solubilized membranes from yeast expressing human Ptch1 (His-tag labelled). Format: binding.

As usually defined, the Kd is a measure of binding affinity in units of concentration.

`CSc1ccc2c(c1)C(N1CCN(C)CC1)Cc1ccccc1S2` (stereo not shown) [P375, methiothepin]: the Kd was roughly 7 µM.
